Test results: BindingDB's records for patent US20240109900 (IRBM, 2024)

Each compound was assayed against T1, Tyrosine-protein phosphatase non-receptor type 11 (Homo sapiens, UniProt Q06124) (assay: SHP2 Inhibition Enzymatic Assay).
T1 sequence (Q06124 whole entry): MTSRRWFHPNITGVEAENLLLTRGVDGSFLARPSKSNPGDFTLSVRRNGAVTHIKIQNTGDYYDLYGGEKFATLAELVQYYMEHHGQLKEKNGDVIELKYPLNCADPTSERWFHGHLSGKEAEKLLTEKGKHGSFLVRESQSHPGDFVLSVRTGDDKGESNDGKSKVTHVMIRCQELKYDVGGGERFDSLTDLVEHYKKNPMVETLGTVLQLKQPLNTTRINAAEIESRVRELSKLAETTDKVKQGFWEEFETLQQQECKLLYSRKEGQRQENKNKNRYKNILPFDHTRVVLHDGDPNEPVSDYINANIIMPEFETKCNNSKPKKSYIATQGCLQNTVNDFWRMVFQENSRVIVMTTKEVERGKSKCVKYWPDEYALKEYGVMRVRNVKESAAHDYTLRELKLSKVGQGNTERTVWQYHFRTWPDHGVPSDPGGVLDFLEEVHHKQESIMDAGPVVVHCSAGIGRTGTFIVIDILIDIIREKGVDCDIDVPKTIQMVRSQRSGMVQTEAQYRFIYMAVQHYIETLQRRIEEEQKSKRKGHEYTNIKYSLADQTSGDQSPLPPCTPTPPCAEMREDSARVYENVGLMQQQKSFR
Experimental: Assay volume of 20 μL/well was assembled in 384 well black polystyrene low-binding microplates (Greiner), using the following buffer: 60 mM HEPES pH 7.2, 75 mM NaCl, 75 mM KCl, 1 mM EDTA pH 8, 0.05% tween-20, 5 mM DTT. The SHP-2 enzyme (synthetized by Origene, Met1-Leu525, cat #TP750155) was used at a final concentration of 0.5 nM. […] SHP2 was then added together with the IRS1 peptide. 30 min post incubation, the DiFMUP substrate was added to the reaction and incubated 30 min at room temperature. […] The fluorescence was detected by a microplate reader (Envision, PerkinElmer) according to the DiFMUP excitation and emission wavelength. The lower the fluorescence the higher the SHP2 inhibition. […] The percentage inhibition is fitted against the compound dilutions with a four-parameter logistic regression.

IC50, < 500 nM:
NCC1(c2ccccc2F)C2CCN(c3cc4nc(Sc5ccnc(N)c5Cl)cnc4[nH]3)CC21 (centres undefined) [US20240109900, Example 59]
Cc1cc(C(N)=O)ncc1-c1n[nH]c2nc(N3CC[C@@H]4[C@H](C3)[C@@]4(CN)c3ccccc3F)cnc12 [US20240109900, Example 307]
Cc1c(-c2n[nH]c3nc(N4CC[C@@H]5[C@H](C4)[C@@]5(CN)c4cc(F)cc(F)c4)cnc23)ccc2nn(C)cc12 [US20240109900, Example 308]
N#CNC(=O)c1ccc(-c2n[nH]c3nc(N4CC[C@@H]5[C@H](C4)[C@@]5(CN)c4ccccc4F)cnc23)c(Cl)c1 [US20240109900, Example 310]
NC[C@]1(c2ccccc2F)[C@@H]2CCN(c3cnc4c(-c5ccc(-c6cc(F)c(O)c(F)c6)cc5Cl)n[nH]c4n3)C[C@@H]21 [US20240109900, Example 313]
NC[C@]1(c2ccccc2F)[C@@H]2CCN(c3cnc4c(-c5ccc(F)c6c(=O)[nH]ccc56)n[nH]c4n3)C[C@@H]21 [US20240109900, Example 314]
Cc1c(-c2n[nH]c3nc(N4CC[C@@H]5[C@H](C4)[C@@]5(CN)c4ccccc4F)cnc23)ccc2c1ncn2C [US20240109900, Example 318]
NC[C@]1(c2ccccc2F)[C@@H]2CCN(c3cnc4c(-c5ccc6c(N)nccc6c5)n[nH]c4n3)C[C@@H]21 [US20240109900, Example 319]
CN1CCOc2ccc(-c3n[nH]c4nc(N5CC[C@@H]6[C@H](C5)[C@@]6(CN)c5ccccc5F)cnc34)c(Cl)c21 [US20240109900, Example 321]
NC[C@]1(c2ccccc2F)[C@@H]2CCN(c3cnc4c(-c5ccc(CC(N)=O)cc5Cl)n[nH]c4n3)C[C@@H]21 [US20240109900, Example 328]
NC[C@]1(c2ccccc2F)[C@@H]2CCN(c3nc4nc(Sc5ccnc(-n6cccn6)c5Cl)cnc4[nH]3)C[C@@H]21 [US20240109900, Example 342]
COc1nccc2cc(-c3n[nH]c4nc(N5CC[C@@H]6[C@H](C5)[C@@]6(CN)c5ccccc5F)cnc34)ccc12 [US20240109900, Example 352]
Cc1nc2ccc(-c3n[nH]c4nc(N5CC[C@@H]6[C@H](C5)[C@@]6(CN)c5ccccc5F)cnc34)c(Cl)c2n1C [US20240109900, Example 358]
NC[C@]1(c2ccccc2F)[C@@H]2CCN(c3cnc4c(-c5ccc6nn(CCO)cc6c5Cl)n[nH]c4n3)C[C@@H]21 [US20240109900, Example 365]
CC(C)(C)C#Cc1n[nH]c2nc(N3CC[C@@H]4[C@H](C3)[C@@]4(CN)c3ccccc3F)cnc12 [US20240109900, Example 366]
NC[C@]1(c2ccccc2F)[C@@H]2CCN(c3cnc4c(-c5ccc(-c6nsc(O)n6)cc5Cl)n[nH]c4n3)C[C@@H]21 [US20240109900, Example 379]
NC[C@]1(c2ccsn2)[C@@H]2CN(c3cnc4c(-c5ccc6nn(C(F)F)cc6c5Cl)n[nH]c4n3)C[C@@H]21 [US20240109900, Example 468]
Cc1csc([C@@]2(CN)[C@@H]3CN(c4cnc5c(-c6ccnc(C)c6F)n[nH]c5n4)C[C@@H]32)n1 [US20240109900, Example 477]
Cc1csc([C@@]2(CN)[C@@H]3CCN(c4cnc5c(-c6ccc(F)c7ncccc67)c[nH]c5n4)C[C@@H]32)n1 [US20240109900, Example 502]
Cc1csc([C@@]2(CN)[C@@H]3CN(c4cnc5c(-c6ccc7c(c6)CC(=O)N7C)n[nH]c5n4)C[C@@H]32)n1 [US20240109900, Example 513]
Cc1csc([C@@]2(CN)[C@@H]3CN(c4cnc5c(-c6ccnc(-n7cccn7)c6Cl)n[nH]c5n4)C[C@@H]32)n1 [US20240109900, Example 516]
Cc1csc([C@@]2(CN)[C@@H]3CN(c4cnc(Sc5ccnc(-n6cccn6)c5Cl)cn4)C[C@@H]32)n1 [US20240109900, Example 520]
Cc1csc([C@@]2(CN)[C@@H]3CN(c4nc(C)n(-c5cccc(Cl)c5Cl)c(=O)c4Cl)C[C@@H]32)n1 [US20240109900, Example 526]
NC[C@]1(c2cc(F)ccc2F)[C@@H]2CCN(c3cnc4c(-c5cccc6c5CCC(=O)N6)n[nH]c4n3)C[C@@H]21 [US20240109900, Example 531]
